Source: patent publication US8518875B2, “(Carboxylalkylenephenyl)phenyloxamides, method for the production thereof and use of same as a medicament” (SANOFI, priority 2007, dated 2013)

biological target: T1, GPCR GPR40 (Homo sapiens, UniProt O14842); assay: In-vitro FLIPR assay with recombinant cells which express the GPCR GPR40; assay type: cell-based; settings: intracellular Ca2+ in recombinant HEK293 cells expressing GPR40, 100% = 10 μM linoleic acid
T1 construct: expressed in transfected cells; host or cells: HEK293
Method: In-Vitro FLIPR Assay with Recombinant Cells which Express the GPCR GPR40
Function-testing assays were carried out by means of the FLIPR technique (“fluorescence imaging plate reader”, Molecular Devices Corp.). For this purpose, agonist-induced alterations in the intracellular concentration of Ca^2+ in recombinant HEK293 cells which express the GPCR GPR40 were determined.
For the investigations, cells were seeded in 96-well microtiter plates (60 000 cells/well) and left to grow overnight. The medium was removed and the cells were incubated in buffer which contained the fluorescent dye Fluo-4. After this loading with dye, the cells were washed, test substance was added and alterations in the intracellular Ca^2+ concentration were measured in the FLIPR instrument. Results have been depicted as percentage alteration relative to the control (0%: no test substance added; 100%: 10 μM reference agonist linoleic acid added) used to calculate dose/activity plots and EC50 values were determined.

T1 sequence (O14842 whole entry): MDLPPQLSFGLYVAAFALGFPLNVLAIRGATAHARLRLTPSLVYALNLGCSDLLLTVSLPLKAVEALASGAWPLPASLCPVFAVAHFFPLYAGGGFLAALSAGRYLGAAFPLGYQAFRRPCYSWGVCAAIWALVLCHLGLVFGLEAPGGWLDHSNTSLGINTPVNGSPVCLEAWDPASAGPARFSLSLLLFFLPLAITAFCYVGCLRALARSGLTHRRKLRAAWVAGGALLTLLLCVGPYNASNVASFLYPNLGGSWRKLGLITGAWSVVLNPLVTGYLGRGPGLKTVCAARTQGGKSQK

| Compound | EC50 |
| --- | --- |
| O=C(O)CCc1ccc(NC(=O)C(=O)Nc2ccc(Cl)cc2Cl)cc1 [compound 7] | 0.7 µM |
| CC(C)c1ccc(NC(=O)C(=O)Nc2ccc(CCC(=O)O)cc2)c(C(F)(F)F)c1 [compound 9] | 0.1 µM |
| O=C(O)CCc1ccc(NC(=O)C(=O)Nc2cc(C(F)(F)F)ccc2Br)cc1 [compound 11] | 0.8 µM |
| O=C(O)CCc1ccc(NC(=O)C(=O)Nc2ccc(Br)cc2Cl)cc1 [compound 14] | 0.6 µM |
| CC(C)c1ccc(NC(=O)C(=O)Nc2cccc(CCC(=O)O)c2)c(Br)c1 [compound 21] | 16.8 µM |
| O=C(O)CCc1cccc(NC(=O)C(=O)Nc2c(Cl)c(Cl)cc(Cl)c2Cl)c1 [compound 24] | 60.1 µM |
